Columns and labels:
[1] = tested on: diarrhea-predominant IBS subjects; conditions: human, in vivo
[2] = tested on: diarrhea-predominant IBS subjects; assay: 3007 Study: IBS-QOL Survey; assay type: in vivo, human
Source text: Subjects were asked to complete the IBS-QOL Survey at Visits 1, 3, and 6 in order to assess possible changes of their QOL.
(§1) Subjects were asked to complete a IBS-QOL Survey at Day 1 (Visit 5 of the core protocol), Month 6 and Month 12 (end of study or early termination) in order to assess possible changes of their QOL. The IBS-QoL survey, a 34 item IBS-specific QoL questionnaire consisting of 8 subscales (i.e., interference with activity; body image; health worry; food avoidance; social reaction; sexual; relationship; and dysphoria) was completed by patients at baseline and at later specified time points (e.g., at week 12 and at week 16 in Study 5050).
For IBS-QOL, Baseline for subjects randomized to the cilansetron treatment group was defined as […] of core Study 3006. For subjects randomized to the placebo group of core Study 3006, Visit 5 of the core Study 3006 was assigned as the Baseline.
Mean changes from Baseline for the IBS-QOL total score and subscale domains were summarized via descriptive statistics at […] and Visit 6 (Month 12) of Study 3007 for subjects randomized to the placebo group in core Study 3006 (or for subjects randomized to the cilansetron treatment group in the core Study 3006, at Visit 5 (Month 3), at Visit 3 (Month 6) and Visit 6 (Month 15) of Study 3007).
For Study 3007, “baseline” was defined as the last post-Baseline visit of Study 3006 (normally Visit 5) for subjects randomized to the placebo group and as Visit 1 of core Study 3006 for subjects randomized to the cilansetron treatment group.
The overall IBS-QOL score and the separate IBS-QOL domain scores (i.e. dysphoria, interference with activity, body image, health worry, food avoidance, social reaction, sexual, and relationship) were summarized by treatment group using descriptive statistics. The calculation of each domain score and the overall score is detailed in the user's manual. For each of the domain scores, as well as for the overall score, the change from Baseline to Endpoint was summarized descriptively. Based on the instruction from the author of the IBS-QOL questionnaire, the missing data of the IBS-QOL questionnaire were handled as follows: • If less than or equal to 20% of the items within a subscore (or total score) were missing for a subject, the subscore (or total score) was the summation of the non-missing scores for that subject; • If more than 20% of the items within a subscore (or total score) were missing, the subscore (or total score) was missing for that subject. Determination of Sample Size

[3] = tested on: subjects with ROME II defined IBS-D; assay: 5050 Study: IBS-QoL survey; assay type: in vivo, human; set-up: IBS-QoL subscale score: Interference with activity / IBS-QoL subscale score: Food avoidance / IBS-QoL subscale score: Sexual / IBS-QoL subscale score: Health Worry / IBS-QoL subscale score: Relationship / IBS-QoL subscale score: Body Image / IBS-QoL subscale score: Social Reaction / IBS-QoL subscale score: Dysphoria: scale not given here; conditions: Study 5050
Experimental: (§2) The 5050 Study was a double-blind, randomized, placebo-controlled study to evaluate the long-term safety and tolerability of cilansetron 2 mg taken on an as needed (prn) basis for 1 year by male and female subjects with ROME II defined IBS-D. The study was performed in 68 centers. Patients were randomized in a 3:1 ratio to receive either cilansetron 2 mg prn or placebo, up to 3 times a day. Safety parameters were explored by comparing the double-blind groups, average daily doses and treatment exposure. Patient visits were scheduled as follows: Visit 1 (pretreatment), Visit 2 (Day 1), Visit 3 (Month 1), Visit 4 (Month 3), Visit 5 (Month 6), Visit 6 (Month 9), and Visit 7 (Month 12). Safety assessments included: adverse events (AEs)/serious adverse events (SAES); laboratory parameters (pretreatment visit and at Months 1, 6, and 12); electrocardiograms (pretreatment visit and at Months 1, 6, and 12); vital signs (at each visit); physical examinations and body weight (pretreatment visit and at Month 12); prior and concomitant medication use (each visit and/or through spontaneous reporting); stool cards for occult blood (every visit except Visit 1). The number of tablets taken per day was recorded daily through a validated interactive voice response system. Patients who met the ROME criteria for IBS and ROME II criteria for the diarrhea predominant subpopulation were included in the study. Patients with acute colitis of any etiology, history of chronic colitis of any etiology, or a history of intestinal obstruction, stricture, toxic megacolon, gastrointestinal (GI) perforation, or fecal impaction were excluded from the study.
as §1

[4] = tested on: subjects with ROME II defined IBS-D; assay: 5050 Study: double-blind placebo-controlled prn safety study, adverse events and withdrawals; assay type: in vivo, human; conditions: Study 5050
Experimental: as §2
For Study 5050, of a total of 402 patients randomized to treatment, 400 received study medication and 395 were included in the safety analysis (cilansetron, N=301; placebo, N=94). Five patients were excluded because of a lack of a post-baseline safety evaluation. Thirty nine percent of patients in the cilansetron group and 56% in the placebo group withdrew from the study; the differences in withdrawals largely were due to lack of efficacy (15% v. 34%, respectively), followed by other unspecified reasons (16% v. 19%, respectively) and AEs (10% v. 9%, respectively). Most patients (57%) were in the 41 to 64 year age category and 72% of all patients were female.

[5] = in vivo
Experimental: One subject took fluvoxamine while taking cilansetron 2 mg TID.

[6] = Table 10.5, time point not stated

In the case of `Cc1nccn1C[C@H]1CCc2c(c3cccc4c3n2CCC4)C1=O` [cilansetron, (R)-(−)-4,5,6,8,9,10-hexahydro-10-[(2-methyl-1H-imidazol-1-yl)methyl]-11H-pyrido-[3,2,1-jk]-carbazol-11-one], the “TEAE leading to permanent discontinuation: Oesophageal Reflux Aggravated” value ([1]; both) is reported as 1 (<1%) n (%), the “TEAE: Oesophageal Reflux Aggravated” value ([1]; both, 52 weeks) is reported as 3 (<1%) n (%) and the “TEAE: Gastrooesophageal Reflux Disease” value ([1]; 52 weeks) is reported as 4 (<1%) n (%). For the same molecule, the “QOL after the start of cilansetron treatment” value ([2]; Study 3007, P/C) was “An improvement was observed”, the “improvement of mean IBS-QOL total score from Baseline” value ([2]; Study 3007, at Endpoint, C/C) was 20.1 and the “mean IBS-QOL total score” value ([2]; Study 3007, at Endpoint, C/C) was 70.7. For the same molecule, the “improvement of mean IBS-QOL total score from Baseline” value ([2]; Study 3007, at Endpoint, P/C) was 8.9, the “mean IBS-QOL total score” value ([2]; Study 3007, at Endpoint, P/C) was 70.9 and the “mean IBS-QOL total score” value ([2]; Study 3007, at Endpoint, overall) was 70.8. The “mean IBS-QOL total score” value ([2]; at the start of Study 3007 (after 12 weeks of Study 3006), C/C) was 69.5, the “beneficial effect on the QOL observed during Study 3006” value ([2]; during Study 3007, C/C) was “maintained” and the “IBS-QoL subscale score: Body Image” value [3, 6] was 61.7. The “IBS-QoL subscale score: Dysphoria” value [3, 6] was 47.4, the “IBS-QoL subscale score: Food avoidance” value [3, 6] was 38.3 and the “IBS-QoL subscale score: Health Worry” value [3, 6] was 65.3. For the same molecule, the “IBS-QoL subscale score: Interference with activity” value [3, 6] was 41.1, the “IBS-QoL subscale score: Relationship” value [3, 6] was 62.5 and the “IBS-QoL subscale score: Sexual” value [3, 6] was 72.2. For the same molecule, the “IBS-QoL subscale score: Social Reaction” value [3, 6] was 58.3, the “change from baseline of IBS-QoL total score, interference with activity, body image, sexual score and dysphoria” value ([3]; p<0.050) was “significant improvement” and the “Treatment-related AE: Alanine aminotransferase increased” value ([4]; 2 mg prn (N = 301)) was 9 (3) N (%). The “Treatment-related AE: Diarrhea (not otherwise specified)” value ([4]; 2 mg prn (N = 301)) was 5 (2) N (%), the “Treatment-related AE: Flatulence” value ([4]; 2 mg prn (N = 301)) was 6 (2) N (%) and the “Treatment-related AE: Headache (not otherwise specified)” value ([4]; 2 mg prn (N = 301)) was 13 (4) N (%). The “Treatment-related AE: Nausea” value ([4]; 2 mg prn (N = 301)) was 15 (5) N (%), the “Treatment-related AE: Rectal Hemmorhage” value ([4]; 2 mg prn (N = 301)) was 8 (3) N (%) and the “treatment-related AE: abdominal pain not otherwise specified” value ([4]; 2 mg prn (N = 301)) was 16 (5) N (%). The “treatment-related AE: constipation” value ([4]; 2 mg prn (N = 301)) was 24 (8) N (%), the “AE incidence: GI and abdominal pain (excluding oral and throat)” value ([4]; cilansetron group) was 12% and the “AE incidence: GI atonic and hypomotility disorders” value ([4]; cilansetron group) was 11%. The “AE incidence: nausea and vomiting” value ([4]; cilansetron group) was 7%, the “AE leading to study discontinuation: abdominal pain” value ([4]; cilansetron group) was 2% and the “AE leading to study discontinuation: constipation” value ([4]; cilansetron group) was 2%. The “treatment-related AE: abdominal pain not otherwise specified” value ([4]; cilansetron group) was 5%, the “treatment-related AE: constipation” value ([4]; cilansetron group) was 8% and the “withdrawals due to AEs” value ([4]; cilansetron group) was 10%. For the same molecule, the “withdrawals due to lack of efficacy” value ([4]; cilansetron group) was 15% and the “increase of cilansetron plasma levels” value [5] was “approximately six to seven”.

— patent publication US20070093520A1, “Method of treatment of diarrhea-predominant irritable bowel syndrome in a subject” (priority 2005, published 2007)
